From patent US9085555B2, “Complement pathway modulators and uses thereof” (priority 2011, dated 2015)

Target: Factor D (Homo sapiens (Human), UniProt P00746)
Assay: biochemical
Assay type: biochemical
Conditions: read-out: IC50

Chain of Factor D (P00746 26-253): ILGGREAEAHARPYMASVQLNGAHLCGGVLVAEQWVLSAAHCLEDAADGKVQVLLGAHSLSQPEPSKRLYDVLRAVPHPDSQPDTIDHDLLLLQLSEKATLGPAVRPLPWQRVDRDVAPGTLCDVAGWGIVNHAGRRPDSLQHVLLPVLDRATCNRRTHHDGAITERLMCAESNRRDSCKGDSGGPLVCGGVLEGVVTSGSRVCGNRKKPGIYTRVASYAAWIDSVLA

Row | SMILES | IC50 [nM]
1 | NC[C@@]1(F)C[C@@H](C(=O)NCc2c(F)ccc(Cl)c2F)N(C(=O)Nc2cn(C(N)=O)c3ccccc23)C1 [Example 411, (2S,4S)-4-aminomethyl-4-fluoro-pyrrolidine-1,2-dicarboxylic acid 1-[(1-carbamoyl-1H-indol-3-yl)-amide]2-(3-chloro-2,6-difluoro-benzylamide)] | 26
2 | CC(=O)n1cc(NC(=O)N2C[C@@](F)(CN)C[C@H]2C(=O)NCc2cccc(Cl)c2F)c2ccccc21 [Example 412, 2S,4S)-4-Aminomethyl-4-fluoro-pyrrolidine-1,2-dicarboxylic acid 1-[(1-acetyl-1H-indol-3-yl)-amide]2-(3-chloro-2-fluoro-benzylamide] | 14
3 | NC[C@@]1(F)C[C@@H](C(=O)N[C@H](CF)c2cccc(Br)c2)N(C(=O)Nc2cn(C(N)=O)c3ccccc23)C1 [Example 413, (2S,4S)-4-Aminomethyl-4-fluoro-pyrrolidine-1,2-dicarboxylic acid 2-{[(S)-1-(3-bromo-phenyl)-2-fluoro-ethyl]-amide}1-[(1-carbamoyl-1H-indol-3-yl)-amide]] | 101
4 | NC[C@@]1(F)C[C@@H](C(=O)Nc2cccc(OC(F)(F)F)c2)N(C(=O)Nc2cn(C(N)=O)c3ccccc23)C1 [Example 414, (2S,4S)-4-Aminomethyl-4-fluoro-pyrrolidine-1,2-dicarboxylic acid 1-[(1-carbamoyl-1H-indol-3-yl)-amide]2-[(3-trifluoromethoxy-phenyl)-amide]] | 311
5 | NC(=O)n1cc(NC(=O)N2C[C@H](N)[C@@H](O)[C@H]2C(=O)NCc2cccc(Cl)c2F)c2ccccc21 [Example 416, 2S,3R,4S)-4-Amino-3-hydroxy-pyrrolidine-1,2-dicarboxylic acid 1-[(1-carbamoyl-1H-indol-3-yl)-amide]2-(3-chloro-2-fluoro-benzylamide] | 315
6 | NC(=O)n1cc(NC(=O)N2CC[C@@H](N)[C@H]2C(=O)NCc2cccc(Cl)c2F)c2ccccc21 [Example 417, 2S,3R)-3-Amino-pyrrolidine-1,2-dicarboxylic acid 1-[(1-carbamoyl-1H-indol-3-yl)-amide]2-(3-chloro-2-fluoro-benzylamide] | 40
7 | NC(=O)n1cc(NC(=O)N2CC[C@@H](N)[C@H]2C(=O)N[C@@H](c2cccc(Cl)c2F)C(F)(F)F)c2ccccc21 [Example 419, (2S,3R)-3-Amino-pyrrolidine-1,2-dicarboxylic acid 1-[(1-carbamoyl-1H-indol-3-yl)-amide]2-{[(S)-1-(3-chloro-2-fluoro-phenyl)-2,2,2-trifluoro-ethyl]-amide}] | 476
8 | NC(=O)n1cc(NC(=O)N2CC[C@H](N)[C@H]2C(=O)NCc2cccc(Cl)c2F)c2ccccc21 [Example 420, 2S,3S)-3-Amino-pyrrolidine-1,2-dicarboxylic acid 1-[(1-carbamoyl-1H-indol-3-yl)-amide]2-(3-chloro-2-fluoro-benzylamide] | 1150
9 | NC(=O)n1cc(NC(=O)N2CC[C@H](N)[C@H]2C(=O)NCc2cccc(Cl)c2)c2ccccc21 [Example 421, 2S,3S)-3-Amino-pyrrolidine-1,2-dicarboxylic acid 1-[(1-carbamoyl-1H-indol-3-yl)-amide]2-(3-chloro-benzylamide] | 9300
10 | CNC[C@@]1(F)C[C@@H](C(=O)NCc2cccc(Cl)c2F)N(C(=O)Nc2cn(C(N)=O)c3ccccc23)C1 [Example 424, 2S,4S)-4-Fluoro-4-methylaminomethyl-pyrrolidine-1,2-dicarboxylic acid 1-[(1-carbamoyl-1H-indol-3-yl)-amide]2-(3-chloro-2-fluoro-benzylamide] | 68
11 | CN[C@H]1C[C@@H](C(=O)NCc2cccc(Cl)c2F)N(C(=O)Nc2cn(C(N)=O)c3ccccc23)C1 [Example 425, 2S,4S)-4-Methylamino-pyrrolidine-1,2-dicarboxylic acid 1-[(1-carbamoyl-1H-indol-3-yl)-amide]2-(3-chloro-2-fluoro-benzylamide] | 1230
12 | COCCN[C@H]1C[C@@H](C(=O)NCc2cccc(Cl)c2F)N(C(=O)Nc2cn(C(N)=O)c3ccccc23)C1 [Example 426, 2S,4S)-4-(2-Methoxy-ethylamino)-pyrrolidine-1,2-dicarboxylic acid 1-[(1-carbamoyl-1H-indol-3-yl)-amide]2-(3-chloro-2-fluoro-benzylamide] | 436
13 | CN(C)[C@H]1C[C@@H](C(=O)NCc2cccc(Cl)c2F)N(C(=O)Nc2cn(C(N)=O)c3ccccc23)C1 [Example 427, 2S,4S)-4-Dimethylamino-pyrrolidine-1,2-dicarboxylic acid 1-[(1-carbamoyl-1H-indol-3-yl)-amide]2-(3-chloro-2-fluoro-benzylamide] | 665
14 | COC1(OC)C[C@@H](C(=O)NCc2cccc(Cl)c2F)N(C(=O)Nc2cn(C(N)=O)c3ccccc23)C1 [Example 428, S)-4,4-Dimethoxy-pyrrolidine-1,2-dicarboxylic acid 1-[(1-carbamoyl-1H-indol-3-yl)-amide]2-(3-chloro-2-fluoro-benzylamide] | 478
15 | NC(=O)n1cc(NC(=O)N2C[C@@H](N)[C@H](O)[C@H]2C(=O)NCc2cccc(Cl)c2F)c2ccccc21 [Example 429, 2S,3S,4R)-4-Amino-3-hydroxy-pyrrolidine-1,2-dicarboxylic acid 1-[(1-carbamoyl-1H-indol-3-yl)-amide]2-(3-chloro-2-fluoro-benzylamide] | 1040
16 | NC(=O)n1cc(NC(=O)N2C[C@@H](N)[C@H](F)[C@H]2C(=O)NCc2cccc(Cl)c2F)c2ccccc21 [Example 430, 2R,3S,4R)-4-Amino-3-fluoro-pyrrolidine-1,2-dicarboxylic acid 1-[(1-carbamoyl-1H-indol-3-yl)-amide]2-(3-chloro-2-fluoro-benzylamide] | 58
17 | NC(=O)n1cc(NC(=O)N2C[C@H](F)[C@@H](N)[C@H]2C(=O)NCc2cccc(Cl)c2F)c2ccccc21 [Example 431, 2S,3S,4S)-3-Amino-4-fluoro-pyrrolidine-1,2-dicarboxylic acid 1-[(1-carbamoyl-1H-indol-3-yl)-amide]2-(3-chloro-2-fluorobenzylamide] | 31
18 | NC(=O)n1cc(NC(=O)N2NCC[C@H]2C(=O)NCc2cccc(Cl)c2F)c2ccccc21 [Example 432] | 7
19 | NC(=O)n1cc(NC(=O)N2NCC[C@@H]2C(=O)NCc2cccc(Cl)c2F)c2ccccc21 [Example 433] | 1790
20 | NC(=O)n1cc(NC(=O)N2NCCC2C(=O)NCc2cccc(Cl)c2)c2ccccc21 (stereo not drawn) [Example 434, Pyrazolidine-1,5-dicarboxylic acid 1-[(1-carbamoyl-1H-indol-3-yl)-amide]5-(3-chloro-benzylamide)] | 35
21 | COC(=O)[C@H]1C[C@@H](C(=O)Nc2cccc(OC(F)(F)F)c2F)N(C(=O)Nc2cn(C(N)=O)c3ccccc23)C1 [Example 435, (3S,5S)-1-(1-Carbamoyl-1H-indol-3-ylcarbamoyl)-5-(2-fluoro-3-trifluoromethoxy-phenylcarbamoyl)-pyrrolidine-3-carboxylic acid methyl ester] | 250
22 | NC(=O)n1cc(NC(=O)N2C[C@@H](CO)C[C@H]2C(=O)NCc2c(F)ccc(Cl)c2F)c2ccccc21 [Example 436, 2S,4S)-4-Hydroxymethyl-pyrrolidine-1,2-dicarboxylic acid 1-[(1-carbamoyl-1H-indol-3-yl)-amide]2-(3-chloro-2,6-difluoro-benzylamide] | 150
23 | NC(=O)c1cc(Br)cc(NC(=O)[C@@H]2C[C@@H](F)CN2C(=O)Nc2cn(C(N)=O)c3ccccc23)c1 [Example 437, (2S,4R)-4-Fluoro-pyrrolidine-1,2-dicarboxylic acid 2-[(3-bromo-5-carbamoyl-phenyl)-amide]1-[(1-carbamoyl-1H-indol-3-yl)-amide]] | 107
24 | COCCNC(=O)c1cc(Cl)c(F)c(CNC(=O)[C@@H]2C[C@@H](F)CN2C(=O)Nc2cn(C(N)=O)c3ccccc23)c1 [Example 438, (2S,4R)-4-Fluoro-pyrrolidine-1,2-dicarboxylic acid 1-[(1-carbamoyl-1H-indol-3-yl)-amide]2-[3-chloro-2-fluoro-5-(2-methoxy-ethylcarbamoyl)-benzylamide]] | 924
25 | CC(C)c1cc(NC(=O)[C@@H]2CCCN2C(=O)Nc2cn(C(N)=O)c3ccccc23)on1 [Example 439, (S)-Pyrrolidine-1,2-dicarboxylic acid 1-[(1-carbamoyl-1H-indol-3-yl)-amide]2-[(3-isopropyl-isoxazol-5-yl)-amide]] | 1250
26 | NC(=O)n1cc(NC(=O)N2CCC[C@H]2C(=O)Nc2cc(-c3ccccc3)no2)c2ccccc21 [Example 440, (S)-Pyrrolidine-1,2-dicarboxylic acid 1-[(1-carbamoyl-1H-indol-3-yl)-amide]2-[(3-phenyl-isoxazol-5-yl)-amide]] | 1050
27 | NC(=O)n1cc(CC(=O)N2CCC[C@H]2C(=O)Nc2cccc(OC(F)(F)F)c2)c2ccccc21 [Example 441, 3-{2-[(S)-2-(3-trifluoromethoxy-phenylcarbamoyl)-pyrrolidin-1-yl]-2-oxo-ethyl}-indole-1-carboxylic acid amide] | 5620
28 | NC(=O)n1cc(CC(=O)N2C[C@H](F)C[C@H]2C(=O)Nc2cccc(OC(F)(F)F)c2F)c2ccccc21 [Example 442, 3-{2-[(2S,4R)-4-Fluoro-2-(2-fluoro-3-trifluoromethoxy-phenylcarbamoyl)-pyrrolidin-1-yl]-2-oxo-ethyl}-indole-1-carboxylic acid amide] | 850
29 | NC(=O)n1cc(CC(=O)N2C[C@@H]3C[C@@H]3[C@H]2C(=O)N[C@H](CO)c2cccc(Cl)c2F)c2ccccc21 [Example 443, 3-(2-{(1S,2S,5R)-2-[(S)-1-(3-Chloro-2-fluoro-phenyl)-2-hydroxy-ethylcarbamoyl]-3-azabicyclo[3.1.0]hex-3-yl}-2-oxo-ethyl)-indole-1-carboxylic acid amide] | 4470
30 | NC(=O)n1cc(CC(=O)N2CC[C@@H](O)[C@H]2C(=O)NCc2cccc(Cl)c2F)c2ccccc21 [Example 444, 3-{2-[(2S,3R)-2-(3-Chloro-2-fluoro-benzylcarbamoyl)-3-hydroxy-pyrrolidin-1-yl]-2-oxo-ethyl}-indole-1-carboxylic acid amide] | 243
